Measurements reported in ChEMBL document CHEMBL5120831, “Pep5-based antitumor peptides containing multifunctional fragments with enhanced activity and synergistic effect” (Eur J Med Chem, 2022).
Numbered stars: 1 amine (or outer) side, 2 acyl side, 3 side chain; on linkers, the order of the positions; unused ones are H or OH. Bridge positions count the residues as written; N and C are the ends. Square brackets hold non-standard residues; d marks the D form. I, II: the chains in the order shown. X1 = O=C([C@H](Cc1c[nH]c2ccccc12)N(c1ccc([N+](=O)[O-])c2nonc12)[*:1])[*:2]

How the values were obtained:
[1] = Drug uptake in human A549 cells at 15 uM measured after 1 hr by Hoechst 33258 staining based confocal laser scanning microscopy; assay type: ADME, cell-based; details: a549, 1 h
[2] = Drug uptake in endosome of human HepG2 cells at 15 uM measured after 30 mins by Hoechst 33258/Lyso-Tracker Red staining based flow cytometry; assay type: ADME; details: hepg2, 0.5 h
[3] = Drug uptake in human HepG2 cells at 15 uM measured after 1 hr by Hoechst 33258 staining based confocal laser scanning microscopy; assay type: ADME, cell-based; details: hepg2, 1 h
[4] = Drug uptake in cytoplasm of human HepG2 cells at 15 uM measured after 60 mins by Hoechst 33258/Lyso-Tracker Red staining based flow cytometry; assay type: ADME, subcellular; details: hepg2, 1 h
[5] = Drug uptake in human L02 cells at 15 uM measured after 1 hr by Hoechst 33258 staining based confocal laser scanning microscopy; assay type: ADME, cell-based; details: l02, 1 h
[6] = Drug uptake in human BEAS-2B cells at 15 uM measured after 1 hr by Hoechst 33258 staining based confocal laser scanning microscopy; assay type: ADME, cell-based
[7] = Drug uptake in human A549 cells at 15 uM measured after 1 hr by Hoechst 33258 staining based flow cyotmetry; assay type: ADME, cell-based; details: a549, 1 h
[8] = Drug uptake in human HepG2 cells at 15 uM measured after 1 hr by Hoechst 33258 staining based flow cyotmetry; assay type: ADME, cell-based; details: hepg2, 1 h
[9] = Drug uptake in human HepG2 cells at 15 uM measured after 60 to 120 mins by Hoechst 33258/Lyso-Tracker Red staining based flow cytometry; assay type: ADME, cell-based; details: hepg2, 15 µM, time 60-120 min
[10] = Drug uptake in human L02 cells at 15 uM measured after 1 hr by Hoechst 33258 staining based flow cyotmetry; assay type: ADME, cell-based; details: l02, 1 h
[11] = Drug uptake in human HepG2 cells membrane at 15 uM measured after 15 mins by Hoechst 33258/Lyso-Tracker Red staining based flow cytometry; assay type: ADME, cell membranes, Cell membrane; details: hepg2, 0.25 h
[12] = Drug uptake in human BEAS-2B cells at 15 uM measured after 1 hr by Hoechst 33258 staining based flow cyotmetry; assay type: ADME, cell-based

Measured: Drug uptake

I: H-[X1]ELVVLGKLLLHHLLHHLLHHGLRKRLRKFRNKIKEK / II: H-GLRKRLRKFRNKIKEK-NH2 (amide I:C-II:4)
Active: all assays above
